{"source": "patent EP4772508A1", "about": "“MACROCYCLIC COMPOUND AND USE THEREOF” (Jiangsu Hengrui Pharmaceuticals Co., Ltd., priority 2023, dated 2025)", "key": {"[1]": {"assay": "Relaxivity of the compound in water", "assay_type": "physicochemical", "details": "deionized water", "protocol": "Test example 1: Relaxivity of the compound in water\nNiumag (Suzhou) Nuclear Magnetic Resonance Contrast Agent Relaxivity Analyser with a 0.5 T magnetic field\nBruker Small Animal Magnetic Resonance Imaging System (BioSpec 70/20 USR) with a 7 T magnetic field\n1 mL of the test sample was placed in a 1.5 mL EP (eppendorf) tube, and the longitudinal relaxation time T1 and transverse relaxation time T2 under different magnetic field conditions were measured separately using the Niumag (Suzhou) Nuclear Magnetic Resonance Contrast Agent Relaxivity Analyser with a 0.5 T magnetic field. The test sample was loaded into a 0.2 mL sample tube until full, and the longitudinal relaxation time T1 and transverse relaxation time T2 under different magnetic field conditions were measured separately using the Bruker Small Animal Magnetic Resonance Imaging System (BioSpec 70/20 USR) with a 7 T magnetic field.\n(§1) Based on the relaxation times T1 and T2 of samples at different concentrations, the relaxivities r1 and r2 were calculated respectively. The relaxivity was calculated according to the following equation: r = (1)/(ΔT)/C, [formula] r: relaxivity; T: relaxation time (s); C: contrast agent concentration (mM)."}, "[2]": {"assay": "Metal transfer stability test in the presence of zinc ions", "assay_type": "physicochemical", "details": "equal volumes 2.5 mM contrast agent and 2.5 mM ZnCl2, phosphate buffer, 37°C, 0.5 T", "protocol": "Test example 4: Metal transfer stability test of compounds in the presence of zinc ions • 1 . Experimental protocol • 2. […] Experiment instruments: VTMR20-010V-I Nuclear Magnetic Resonance Cross-Linking Density Imaging Analyser • 4. Experimental method\nA 2.5 mM solution of contrast agent solutions and a 2.5 mM solution of zinc chloride were respectively prepared in phosphate buffer (0.026 mol/L KH2PO4 and 0.041 mol/L Na2HPO4). An equal volume of a 2.5 mM ZnCl2 solution was added to the a 2.5 mM gadolinium contrast agent solution, and the mixture was mixed by shaking. This moment of complete mixing was designated as time zero (t = 0). Immediately thereafter, a 0.5 mL aliquot was withdrawn and subjected to measurement of the longitudinal relaxation time, T1(0), at 37°C and a magnetic field strength of 0.5 T. The mixed solution was then incubated at 37°C. 0.5 mL of the solution was taken at time points of 5 min, 180 min, 1440 min and 5760 min, respectively, to determine T1(t) at different time points. The ratio of the relaxivity at different time points to the initial relaxivity at time 0, namely R1(t)/R1(0), was calculated."}, "[3]": {"assay": "Relaxivity of compounds in human plasma", "assay_type": "physicochemical", "details": "human plasma containing sodium heparin, 0.5 T", "protocol": "as §1"}, "canine plasma proteins": {"tested_on": "canine plasma proteins", "details": "dog, 1000 µM", "protocol": "After the preparation of plasma samples, 0.5 mL of plasma samples were transferred into ultracentrifugation tubes, with 3 replicates per concentration. After incubation in a CO2 incubator at 37°C for 0.5 h, the samples were subjected to ultracentrifugation at 627,000 g for 3 hours at 37°C. After centrifugation, 100 µL of samples were taken from the central layer of the ultracentrifugation tubes and mixed with 100 µL of blank plasma. The samples were stored at -70°C for subsequent determination.\nThe plasma protein binding rates of analytes at different concentration levels were calculated using the following formulas: [formula] Binding rate% = 100%−Free rate%. [formula]"}, "[4]": {"details": "hydrochloric acid pH 1.2, 37°C, 8 × 10^-6 M, 0 h"}, "[5]": {"details": "hydrochloric acid, 24 h, 8 µM, pH 1.2"}, "[6]": {"details": "hydrochloric acid, 48 h, 8 µM, pH 1.2"}, "[7]": {"details": "hydrochloric acid, 96 h, 8 µM, pH 1.2"}}, "note": "Where two headings read alike, the source gives them in different places. Marks after values point to notes of the source that are not given here."}
{"substance": "Gadobutrol", "values": [{"measurement": "Relaxivity r1", "setting": "[1]; 0.5 T", "value": 4.4, "unit": "mM⁻¹ s⁻¹"}, {"measurement": "Relaxivity r1", "setting": "[1]; 7 T", "value": 3.5, "unit": "mM⁻¹ s⁻¹"}, {"measurement": "R1(t)/R1(0)", "setting": "[2]; 0 min", "value": 1}, {"measurement": "R1(t)/R1(0)", "setting": "[2]; 5 min", "value": 0.93}, {"measurement": "R1(t)/R1(0)", "setting": "[2]; 180 min", "value": 0.82}, {"measurement": "R1(t)/R1(0)", "setting": "[2]; 1440 min", "value": 0.96}, {"measurement": "R1(t)/R1(0)", "setting": "[2]; 5760 min", "value": 0.90}, {"measurement": "Relaxivity r1", "setting": "[3]", "value": 7.5, "unit": "mM⁻¹ s⁻¹"}, {"measurement": "Gd^3+ Dissociation rate (%)", "setting": "[4]", "value": "BLQ"}, {"measurement": "Gd^3+ Dissociation rate (%)", "setting": "[5]", "value": 73.5, "unit": "%"}, {"measurement": "Gd^3+ Dissociation rate (%)", "setting": "[6]", "value": 70.1, "unit": "%"}, {"measurement": "Gd^3+ Dissociation rate (%)", "setting": "[7]", "value": 64.6, "unit": "%"}]}
{"substance": "Gadodiamide", "values": [{"measurement": "R1(t)/R1(0)", "setting": "[2]; 0 min", "value": 1}, {"measurement": "R1(t)/R1(0)", "setting": "[2]; 5 min", "value": 1.07}, {"measurement": "R1(t)/R1(0)", "setting": "[2]; 180 min", "value": 0.59}, {"measurement": "R1(t)/R1(0)", "setting": "[2]; 1440 min", "value": 0.59}, {"measurement": "R1(t)/R1(0)", "setting": "[2]; 5760 min", "value": 0.38}]}
{"substance": "Gadopiclenol [RC1]", "values": [{"measurement": "Average% (binding rate)", "setting": "canine plasma proteins", "value": "0* %"}, {"measurement": "Relaxivity r1", "setting": "[1]; 0.5 T", "value": 11.7, "unit": "mM⁻¹ s⁻¹"}, {"measurement": "Relaxivity r1", "setting": "[1]; 7 T", "value": 6.3, "unit": "mM⁻¹ s⁻¹"}, {"measurement": "Gd^3+ Dissociation rate (%)", "setting": "[4]", "value": "BLQ"}, {"measurement": "Gd^3+ Dissociation rate (%)", "setting": "[5]", "value": 24.7, "unit": "%"}, {"measurement": "Gd^3+ Dissociation rate (%)", "setting": "[6]", "value": 35.6, "unit": "%"}, {"measurement": "Gd^3+ Dissociation rate (%)", "setting": "[7]", "value": 37.8, "unit": "%"}]}
